32 molecules from patent publication US20240409556A1, “BENZOPIPERAZINE AND RELATED ANALOGS FOR INHIBITING YAP/TAZ-TEAD” (Springworks Therapeutics, Inc., priority 2023, published 2024) can be followed below.

Structures are written as SMILES. Bounds are passed on as bounds.

One experiment relates to YAP/TAZ-TEAD transcription. The experiment is described as follows: Reporter gene assay for measuring the inhibition of YAP/TAZ-TEAD transcription (TEAD-responsive element luciferase reporter in Hek293T cells). The format is cell-based. Particulars: 24 hours incubation. In short, it runs like this: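 HEK293T cells transiently transfected with a TEAD-responsive luciferase reporter were exposed to compounds for 24 h at 37° C/5% CO2, then luminescence was read. Percent inhibition normalised to vehicle (0%) and positive-control inhibitor (100%); IC50 derived.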
As a reminder, the IC50 is the concentration needed to halve the response being measured. High values mean weaker potency, low ones greater potency. `O=C(O)C1(F)CCN2c3ccccc3N(c3ccc(C(F)(F)F)cc3)CC2C1` [123-D4, (6aS,8S)- or (6aR,8S)- or (6aR,8R)- or (6aS,8R)-8-fluoro-5-(4-(trifluoromethyl)phenyl)-6,6a,7,8,9,10-hexahydro-5H-pyrido[1,2-a]quinoxaline-8-carboxylic acid] displayed a half-inhibitory concentration (IC50) of less than 1000 nM.

`C=CC(=O)N1CC2CN(c3ccc(C(F)(F)F)cc3)c3ccccc3N2CC1C(=O)O` (stereo not drawn) [compound 89, (cis)- or (trans)-3-acryloyl-6-(4-(trifluoromethyl)phenyl)-2,3,4,4a,5,6-hexahydro-1H-pyrazino[1,2-a]quinoxaline-2-carboxylic acid] came in with an IC50 of less than 1000 nM.

Turning to `Cc1ccc2c(n1)N1CCC(C(=O)O)CC1CN2c1ccc(C(F)(F)F)cc1` [101-D3, (6aS,8S)— or (6aR,8S)— or (6aR,8R)— or (6aS,8R)-2-methyl-5-(4-(trifluoromethyl)phenyl)-6,6a,7,8,9,10-hexahydro-5H-dipyrido[1,2-a:3′,2′-e]pyrazine-8-carboxylic acid], the IC50 was less than 1000 nM.

For `O=C(O)C1CCN2c3ncccc3N(c3ccc(C(F)(F)F)cc3)CC2C1` [96A-En2, (6aS,8S)- or (6aR,8S)- or (6aR,8R)- or (6aS,8R)-5-(4-(trifluoromethyl)phenyl)-6,6a,7,8,9,10-hexahydro-5H-dipyrido[1,2-a:3′,2′-e]pyrazine-8-carboxylic acid], the IC50 was less than 1000 nM.

As to `CC(=O)N1CC(=O)N2c3ccccc3N(c3ccc(C(F)(F)F)cc3)CC2C1` (single isomer, unassigned) [79-En1, (R)- or (S)-3-acetyl-6-(4-(trifluoromethyl)phenyl)-2,3,4,4a,5,6-hexahydro-1H-pyrazino[1,2-a]quinoxalin-1-one], the IC50 is more than 10000 nM.

`COc1ccc2c(n1)OC(CNC(C)=O)CN2c1ccc(C(F)(F)F)cc1` (centres unmarked) [compound 73, N-((6-methoxy-1-(4-(trifluoromethyl)phenyl)-2,3-dihydro-1H-pyrido[2,3-b][1,4]oxazin-3-yl)methyl)acetamide] had a concentration for half-maximal inhibition (IC50) of less than 1000 nM.

Regarding `CC(=O)NCC1CN(c2ccc(C(F)(F)F)cc2)c2ccccc2O1` (single isomer, unassigned) [36-En2, (R)- or (S)-N-((4-(4-(trifluoromethyl)phenyl)-3,4-dihydro-2H-benzo[b][1,4]oxazin-2-yl)methyl)acetamide], the IC50 was less than 1000 nM.

Molecule `CNS(=O)(=O)N1CCN2c3ncccc3N(c3ccc(C(F)(F)F)cc3)CC2C1` (single isomer, unassigned) [45-En1, (R)- or (S)-N-methyl-5-(4-(trifluoromethyl)phenyl)-5,6,6a,7,9,10-hexahydro-8H-pyrazino[1,2-a]pyrido[3,2-e]pyrazine-8-sulfonamide] registered a half-maximal inhibitory concentration (IC50) of less than 1000 nM.

The experiment is the same for the next values; noted with them: Homo sapiens, HEK-293T, 24 h, 24 hours incubation.
For `CC(=O)N[C@@H]1C[C@@H]2CN(c3ccc(C(F)(F)F)cc3)c3cc(C)cnc3N2C1` [compound 93, N-((6aR,8R)-3-methyl-5-(4-(trifluoromethyl)phenyl)-5,6,6a,7,8,9-hexahydropyrido[3,2-e]pyrrolo[1,2-a]pyrazin-8-yl)acetamide], the IC50 is less than 1000 nM.

Regarding `C=CC(=O)N1CCN2c3ncccc3N(c3ccc(C(F)(F)F)cc3)CC2C1` (centres unmarked) [28-En1, 1-(5-(4-(trifluoromethyl)phenyl)-5,6,6a,7,9,10-hexahydro-8H-pyrazino[1,2-a]pyrido[3,2-e]pyrazin-8-yl)prop-2-en-1-one], the IC50 was less than 1000 nM.

Molecule `CC(=O)NCC1CN(c2ccc(C(F)(F)F)cc2)c2ccc(C(F)(F)F)nc2O1` (centres unmarked) [compound 76, N-((6-(trifluoromethyl)-1-(4-(trifluoromethyl)phenyl)-2,3-dihydro-1H-pyrido[2,3-b][1,4]oxazin-3-yl)methyl)acetamide] had an IC50 of 1000 to 10000 nM.

Consider `NCC(=O)N[C@@H]1C[C@@H]2CN(c3ccc(C(F)(F)F)cc3)c3cccnc3N2C1` [compound 97, 2-amino-N-((6aR,8R)-5-(4-(trifluoromethyl)phenyl)-5,6,6a,7,8,9-hexahydropyrido[3,2-e]pyrrolo[1,2-a]pyrazin-8-yl)acetamide], for which the IC50 was less than 1000 nM.

For the molecule `CC(=O)NCC1CN(c2ccc(C(F)(F)F)cc2)c2ccc(N(C)C)nc2O1` (centres unmarked) [compound 87, N-((6-(dimethylamino)-1-(4-(trifluoromethyl)phenyl)-2,3-dihydro-1H-pyrido[2,3-b][1,4]oxazin-3-yl)methyl)acetamide], the IC50 was less than 1000 nM.

`O=C(O)C1CCN(c2ncccc2Nc2ccc(C(F)(F)F)cc2)CC1` [compound 124, 1-(3-((4-(trifluoromethyl)phenyl)amino)pyridin-2-yl)piperidine-4-carboxylic acid]: the IC50 was less than 1000 nM.

Molecule `O=S1(=O)CCN2c3ncccc3N(c3ccc(C(F)(F)F)cc3)CC2C1` (centres unmarked) [compound 68, 5-(4-(trifluoromethyl)phenyl)-5,6,6a,7,9,10-hexahydropyrido[3′,2′:5,6]pyrazino[2,1-c][1,4]thiazine 8,8-dioxide] registered an IC50 of 1000 to 10000 nM.

`O=C(O)CN1CCN2c3ccccc3N(c3ccc(C(F)(F)F)cc3)CC2C1` (centres unmarked) [compound 31, 2-(6-(4-(trifluoromethyl)phenyl)-1,2,4,4a,5,6-hexahydro-3H-pyrazino[1,2-a]quinoxalin-3-yl)acetic acid] yielded an IC50 of 1000 to 10000 nM.

As to `COC(=O)N[C@@H]1C[C@@H]2CN(c3ccc(C(F)(F)F)cc3)c3cccnc3N2C1` [compound 83, methyl ((6aR,8R)-5-(4-(trifluoromethyl)phenyl)-5,6,6a,7,8,9-hexahydropyrido[3,2-e]pyrrolo[1,2-a]pyrazin-8-yl)carbamate], the IC50 is less than 1000 nM.

Take `FC(F)(F)c1ccc(N2CCN(Cc3cccnc3)c3ccccc32)cc1` [compound 64, 1-(pyridin-3-ylmethyl)-4-(4-(trifluoromethyl)phenyl)-1,2,3,4-tetrahydroquinoxaline]: the IC50 fell in the range of 1000 to 10000 nM.

In the case of `CC(=O)NCC1CN(c2ccc(C(F)(F)F)cc2)c2ccc(Br)nc2O1` (single isomer, unassigned) [compound 122, (R)- or (S)—N-((6-bromo-1-(4-(trifluoromethyl)phenyl)-2,3-dihydro-1H-pyrido[2,3-b][1,4]oxazin-3-yl)methyl)acetamide], the IC50 is less than 1000 nM.

In the case of `C=CC(=O)NCC1CN(c2ccc(C(F)(F)F)cc2)c2cccnc2O1` (centres unmarked) [compound 48, N-((1-(4-(trifluoromethyl)phenyl)-2,3-dihydro-1H-pyrido[2,3-b][1,4]oxazin-3-yl)methyl)acrylamide], the IC50 was less than 1000 nM.

In turn, `CC(=O)NC[C@H]1CN(c2ccc(C(F)(F)F)cc2)c2cccnc2N1` [39-En1, (S)-N-((1-(4-(trifluoromethyl)phenyl)-1,2,3,4-tetrahydropyrido[2,3-b]pyrazin-3-yl)methyl)acetamide] yielded a 50% inhibitory concentration (IC50) of less than 1000 nM.

Molecule `C=CC(=O)NCC1CN(c2ccc(C(F)(F)F)cc2)c2cccnc2N1C` (centres unmarked) [compound 27, N-((4-methyl-1-(4-(trifluoromethyl)phenyl)-1,2,3,4-tetrahydropyrido[2,3-b]pyrazin-3-yl)methyl)acrylamide] yielded an IC50 of less than 1000 nM.

Turning to `O=C(O)C1CCN2c3ncccc3N(c3ccc(C(F)(F)F)cc3)CC2C1` [96A-En1, (6aS,8S)- or (6aR,8S)- or (6aR,8R)- or (6aS,8R)-5-(4-(trifluoromethyl)phenyl)-6,6a,7,8,9,10-hexahydro-5H-dipyrido[1,2-a:3′,2′-e]pyrazine-8-carboxylic acid], the 50% inhibitory concentration (IC50) was less than 1000 nM.

For the molecule `O=C(O)C1(O)CCN2c3ccccc3N(c3ccc(C(F)(F)F)cc3)CC2C1` (stereo not drawn) [126A, (cis)- or (trans)-8-hydroxy-5-(4-(trifluoromethyl)phenyl)-6,6a,7,8,9,10-hexahydro-5H-pyrido[1,2-a]quinoxaline-8-carboxylic acid], the IC50 is less than 1000 nM.

For the molecule `Cc1ccc2c(n1)N1CCC(C(=O)O)CC1CN2c1ccc(C(F)(F)F)cc1` [101-D1, (6aS,8S)— or (6aR,8S)— or (6aR,8R)— or (6aS,8R)-2-methyl-5-(4-(trifluoromethyl)phenyl)-6,6a,7,8,9,10-hexahydro-5H-dipyrido[1,2-a:3′,2′-e]pyrazine-8-carboxylic acid], the IC50 was less than 1000 nM.

The molecule `O=C(O)C1CCN(c2ccccc2Oc2ccc(C(F)(F)F)cc2)CC1` [compound 120, 1-(2-(4-(trifluoromethyl)phenoxy)phenyl)piperidine-4-carboxylic acid] yielded an IC50 of less than 1000 nM.

`O=C(O)C1CCN2c3ccccc3N(c3ccc(C(F)(F)F)cc3)CC2C1` (stereo not drawn) [65A, (cis)- or (trans)-5-(4-(trifluoromethyl)phenyl)-6,6a,7,8,9,10-hexahydro-5H-pyrido[1,2-a]quinoxaline-8-carboxylic acid] gave an IC50 of less than 1000 nM.

In turn, `CC(=O)N1CC(N2CCN(c3ccc(C(F)(F)F)cc3)c3ccccc32)C1` [compound 56, 1-(3-(4-(4-(trifluoromethyl)phenyl)-3,4-dihydroquinoxalin-1(2H)-yl)azetidin-1-yl)ethan-1-one] registered an IC50 of less than 1000 nM.

Turning to `Cc1ccc(Nc2ccc(C(F)(F)F)cc2)c(N2CCC(C(=O)O)CC2)n1` [compound 125, 1-(6-methyl-3-((4-(trifluoromethyl)phenyl)amino)pyridin-2-yl)piperidine-4-carboxylic acid], the IC50 was less than 1000 nM.

On to `C=CC(=O)N1CCN2CC(=O)N(c3ccc(C(F)(F)F)cc3)CC2C1` (centres unmarked) [compound 33, 8-acryloyl-2-(4-(trifluoromethyl)phenyl)-hexahydro-2H-pyrazino[1,2-a]pyrazin-3(4H)-one], for which the IC50 was less than 1000 nM.

In turn, `C=CC(=O)NCC1CN(c2ccc(C(F)(F)F)cc2)c2ccccc2N1CCC(=O)O` (centres unmarked) [compound 7, 3-(2-(acrylamidomethyl)-4-(4-(trifluoromethyl)phenyl)-3,4-dihydroquinoxalin-1(2H)-yl)propanoic acid] displayed a half-inhibitory concentration (IC50) of more than 10000 nM.

Take `CNS(=O)(=O)N1CCN2c3ncccc3N(c3ccc(C(F)(F)F)cc3)CC2C1` (centres unmarked) [compound 45, N-methyl-5-(4-(trifluoromethyl)phenyl)-5,6,6a,7,9,10-hexahydro-8H-pyrazino[1,2-a]pyrido[3,2-e]pyrazine-8-sulfonamide]: the 50% inhibitory concentration (IC50) is less than 1000 nM.
